From article PMC6850446, “In vivo inactivation of glycosidases by conduritol B epoxide and cyclophellitol as revealed by activity‐based protein profiling” (The Febs Journal, 2019)
Where two headings read alike, the source gives them in different places.

Experiments:
GANAB (zebrafish larvae) = system: T1, GANAB (zebrafish larvae); assay: live larvae exposed, residual activity in lysate with 4MU-alpha-D-glucopyranoside; parameters: species or system Danio rerio; conditions: covalent; in vivo: concentration in egg water, 5 days at 28.5 °C; assay pH 7.0; read-out: CBE / Enz. assay
T1 construct: endogenous enzyme in larvae, measured in larval lysate; paralogues not distinguished
Description: live larvae exposed, residual activity in lysate with 4MU-alpha-D-glucopyranoside on GANAB (zebrafish larvae)

[1] = biological target: T2, GUSB (lysosomal beta-glucuronidase) (Homo sapiens, UniProt P08236); assay: intact cells treated, residual activity in lysate with 4MU-beta-D-glucuronide; type: cell-based; conditions: 24 h treatment of intact HEK293T cells, assay pH 5.0
T2 construct: endogenous enzyme in HEK293T cells (GBA2-expressing line)
T2 sequence (P08236 23-651): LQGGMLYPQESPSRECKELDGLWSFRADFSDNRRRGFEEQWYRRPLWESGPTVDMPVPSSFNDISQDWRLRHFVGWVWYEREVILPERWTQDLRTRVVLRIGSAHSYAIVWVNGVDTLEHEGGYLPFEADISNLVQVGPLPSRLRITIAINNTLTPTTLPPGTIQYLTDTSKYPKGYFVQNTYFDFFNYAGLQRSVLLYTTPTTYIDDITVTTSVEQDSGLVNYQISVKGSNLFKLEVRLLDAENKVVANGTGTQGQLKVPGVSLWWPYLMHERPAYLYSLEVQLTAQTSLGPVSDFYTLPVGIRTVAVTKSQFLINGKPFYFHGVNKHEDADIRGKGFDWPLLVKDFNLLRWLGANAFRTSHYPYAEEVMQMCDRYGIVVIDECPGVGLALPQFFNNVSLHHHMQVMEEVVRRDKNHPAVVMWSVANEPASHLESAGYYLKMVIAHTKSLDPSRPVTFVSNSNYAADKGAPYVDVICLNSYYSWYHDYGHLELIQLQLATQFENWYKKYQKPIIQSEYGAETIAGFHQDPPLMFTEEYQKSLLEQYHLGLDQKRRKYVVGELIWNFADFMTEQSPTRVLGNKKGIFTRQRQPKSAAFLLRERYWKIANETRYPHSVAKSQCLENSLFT

GUSB (zebrafish larvae) = biological target: T3, GUSB (zebrafish larvae) (Danio rerio, UniProt F1QGS9); assay: live larvae exposed, residual activity in lysate with 4MU-beta-D-glucuronide; conditions: covalent; in vivo: concentration in egg water, 5 days at 28.5 °C; assay pH 5.0; read-out: CBE / Enz. assay
T3 construct: endogenous enzyme in larvae, measured in larval lysate
T3 sequence (F1QGS9 26-644): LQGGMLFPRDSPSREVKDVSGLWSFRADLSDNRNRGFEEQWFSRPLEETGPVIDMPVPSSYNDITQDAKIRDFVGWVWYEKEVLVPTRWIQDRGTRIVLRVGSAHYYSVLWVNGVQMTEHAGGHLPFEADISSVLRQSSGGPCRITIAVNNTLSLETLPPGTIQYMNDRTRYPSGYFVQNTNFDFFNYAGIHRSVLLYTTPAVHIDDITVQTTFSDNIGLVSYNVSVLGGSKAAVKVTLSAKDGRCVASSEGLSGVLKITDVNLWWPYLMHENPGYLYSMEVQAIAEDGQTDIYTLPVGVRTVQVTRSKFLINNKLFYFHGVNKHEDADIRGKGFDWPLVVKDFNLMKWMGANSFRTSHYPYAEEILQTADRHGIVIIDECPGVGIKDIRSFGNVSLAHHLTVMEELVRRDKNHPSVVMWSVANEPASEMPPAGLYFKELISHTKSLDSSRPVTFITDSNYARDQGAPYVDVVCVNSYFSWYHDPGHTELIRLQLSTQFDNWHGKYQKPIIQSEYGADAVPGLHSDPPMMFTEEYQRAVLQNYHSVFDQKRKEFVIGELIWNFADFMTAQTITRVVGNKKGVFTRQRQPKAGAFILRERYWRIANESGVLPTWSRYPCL
Description: live larvae exposed, residual activity in lysate with 4MU-beta-D-glucuronide on GUSB (zebrafish larvae)

IC50 ([1]; covalent, read-out: CBE / Enz. assay) [mM] | IC50 (GUSB (zebrafish larvae)) [mM] | Compound | IC50 (GANAB (zebrafish larvae)) [mM] | IC50 ([1]; read-out: apparent IC50) [mM]
0.607 | 6.38 | OC1C(O)C(O)C2OC2C1O (stereo not shown) [compound 1, conduritol B epoxide] | 4.55 | 
 |  | OC[C@@H]1[C@@H](O)[C@H](O)[C@@H](O)[C@@H]2O[C@H]12 [compound 2, cyclophellitol] |  | > 0.01
